One assay deals with T1, HDM2 (Homo sapiens, UniProt Q00987).
T1 construct: Thioredoxin (N); made in house; host or cells: E. coli strain BL21(DE3)Rosetta
T1 sequence (Q00987 17-125): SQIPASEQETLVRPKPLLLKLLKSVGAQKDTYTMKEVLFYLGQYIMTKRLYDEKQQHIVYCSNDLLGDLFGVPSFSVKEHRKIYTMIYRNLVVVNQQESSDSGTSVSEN
The assay is described as follows: HDM2 FRET assay (inhibition of binding of FITC labeled p53-pocket peptide to HDM2). Particulars: 0.5 nM HDM2 (residues 17 to 125), 3nM peptide, two hour incubation at room temperature; read-out: FRET IC50. Summed up: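 Compounds were tested in 10-point serial dilution against 0.5 nM recombinant HDM2 binding 3 nM fluorescein-labeled p53-pocket peptide. Detection used 0.25 nM terbium cryptate anti-6xHis antibody in PBS buffer containing 0.01% BSA and 0.01% Tween-20.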
The term IC50 denotes the concentration needed to halve the response being measured. For the compound `CC(C)c1ccnc(-c2nc3nc(CO)nc(N[C@H](C)C4CCC4)c3n2Cc2ccc(C(F)(F)F)cc2)c1` [Example 12.2, (6-{[(1R)-1-cyclobutylethyl]amino}-8-[4-(propan-2-yl)pyridin-2-yl]-7-[4-(trifluoromethyl)benzyl]-7H-purin-2-yl)methanol], the IC50 turned out to be 597 nM.

As to `CC(C)c1ccnc(-c2nc3nc(-c4cnn[nH]4)nc(N[C@H](C)C4CCC4)c3n2Cc2ccc(C(F)(F)F)cc2)c1` [Example 12.3, N-[(1R)-1-cyclobutylethyl]-8-[4-(propan-2-yl)pyridin-2-yl]-2-(1H-1,2,3-triazol-5-yl)-7-[4-(trifluoromethyl)benzyl]-7H-purin-6-amine], the IC50 was 535 nM.

As for `CC(=O)c1nc(N[C@H](C)C2CCC2)c2c(n1)nc(-c1cc(C(C)C)ccn1)n2C[C@H]1CC[C@H](C)CC1` [Example 12.5, 1-(6-{[(1R)-1-cyclobutylethyl]amino}-7-[(trans-4-methylcyclohexyl)methyl]-8-[4-(propan-2-yl)pyridin-2-yl]-7H-purin-2-yl)ethanone], the IC50 was determined as 471 nM.

With `CC(C)c1ccnc(-c2nc3nc(C(C)O)nc(N[C@H](C)C4CCC4)c3n2C[C@H]2CC[C@H](C)CC2)c1` (stereo partly drawn) [Example 12.6, 1-(6-{[(1R)-1-cyclobutylethyl]amino}-7-[(trans-4-methylcyclohexyl)methyl]-8-[4-(propan-2-yl)pyridin-2-yl]-7H-purin-2-yl)ethanol], the IC50 came to 420 nM.

Regarding `CC(C)c1ccnc(-c2nc3nc(C(C)(C)O)nc(N[C@H](C)C4CCC4)c3n2C[C@H]2CC[C@H](C)CC2)c1` [Example 12.7, 2-(6-{[(1R)-1-cyclobutylethyl]amino}-7-[(trans-4-methylcyclohexyl)methyl]-8-[4-(propan-2-yl)pyridin-2-yl]-7H-purin-2-yl)propan-2-ol], the IC50 came to 731 nM.

In the case of `CC(C)c1ccnc(-c2nc3nc(-c4nnn[nH]4)nc(N[C@H](C)C4CCC4)c3n2C[C@H]2CC[C@H](C)CC2)c1` [Example 12.8, N-[(1R)-1-cyclobutylethyl]-7-[(trans-4-methylcyclohexyl)methyl]-8-[4-(propan-2-yl)pyridin-2-yl]-2-(1H-tetrazol-5-yl)-7H-purin-6-amine], the IC50 turned out to be 1.91 nM.

With `CC(C)c1ccnc(-c2nc3nc(CNS(C)(=O)=O)nc(N[C@H](C)C4CCC4)c3n2C[C@H]2CC[C@H](C)CC2)c1` [Example 12.9, N-[(6-{[(1R)-1-cyclobutylethyl]amino}-7-[(trans-4-methylcyclohexyl)methyl]-8-[4-(propan-2-yl)pyridin-2-yl]-7H-purin-2-yl)methyl]methanesulfonamide], the IC50 came to 374 nM.

As to `C[C@@H](Nc1nc(-c2nnn(C)n2)nc2nc(N3CCOC[C@H]3c3ccccc3)n(C[C@H]3CC[C@H](C)CC3)c12)C1CCC1` [Example 12.11, N-[(1R)-1-cyclobutylethyl]-7-[(trans-4-methylcyclohexyl)methyl]-2-(2-methyl-2H-tetrazol-5-yl)-8-[(3R)-3-phenylmorpholin-4-yl]-7H-purin-6-amine], the IC50 stood at 32.5 nM.

As to `C[C@@H](Nc1nc(-c2nnnn2C)nc2nc(N3CCOC[C@H]3c3ccccc3)n(C[C@H]3CC[C@H](C)CC3)c12)C1CCC1` [Example 12.12, N-[(1R)-1-cyclobutylethyl]-7-[(trans-4-methylcyclohexyl)methyl]-2-(1-methyl-1H-tetrazol-5-yl)-8-[(3R)-3-phenylmorpholin-4-yl]-7H-purin-6-amine], the IC50 worked out at 27.3 nM.

As to `COC(=O)c1nc(N[C@H](C)C2CCC2)c2c(n1)nc(N1CCOC[C@H]1c1ccccc1)n2C[C@H]1CC[C@H](C)CC1` [Example 12.13, Methyl-6-{[(1R)-1-cyclobutylethyl]amino}-7-[(trans-4-methylcyclohexyl)methyl]-8-[(3R)-3-phenylmorpholin-4-yl]-7H-purine-2-carboxylate], the IC50 turned out to be 49.4 nM.

Regarding `C[C@@H](Nc1nc(C(C)(C)O)nc2nc(N3CCOC[C@H]3c3ccccc3)n(C[C@H]3CC[C@H](C)CC3)c12)C1CCC1` [Example 12.14, 2-(6-{[(1R)-1-cyclobutylethyl]amino}-7-[(trans-4-methylcyclohexyl)methyl]-8-[(3R)-3-phenylmorpholin-4-yl]-7H-purine-2-yl)propan-2-ol], the IC50 turned out to be 107 nM.

For the compound `C[C@@H](Nc1nc(-c2n[nH]c(=O)n2C)nc2nc(N3CCOC[C@H]3c3ccccc3)n(C[C@H]3CC[C@H](C)CC3)c12)C1CCC1` [Example 12.15, 5-(6-{[(1R)-1-cyclobutylethyl]amino}-7-[(trans-4-methylcyclohexyl)methyl]-8-[(3R)-3-phenylmorpholin-4-yl]-7H-purin-2-yl)-4-methyl-2,4-dihydro-3H-1,2,4-triazol-3-one], the IC50 worked out at 14.5 nM.

As for `C[C@@H](Nc1nc(-c2nnc[nH]2)nc2nc(N3CCOC[C@H]3c3ccccc3)n(C[C@H]3CC[C@H](C)CC3)c12)C1CCC1` [Example 12.16, N-[(1R)-1-cyclobutylethyl]-7-[(trans-4-methylcyclohexyl)methyl]-8-[(3R)-3-phenylmorpholin-4-yl]-2-(4H-1,2,4-triazol-3-yl)-7H-purin-6-amine], the IC50 worked out at 10.8 nM.

Consider `CCNC(=O)c1nc(N[C@H](C)C2CCC2)c2c(n1)nc(N1CCOC[C@H]1c1ccccc1)n2C[C@H]1CC[C@H](C)CC1` [Example 12.17, 6-{[(1R)-1-cyclobutylethyl]amino}-N-ethyl-7-[(trans-4-methylcyclohexyl)methyl]-8-[(3R)-3-phenylmorpholin-4-yl]-7H-purine-2-carboxamide], for which the IC50 turned out to be 1.63 nM.

In the case of `C[C@@H](Nc1nc(C(=O)NS(C)(=O)=O)nc2nc(N3CCOC[C@H]3c3ccccc3)n(C[C@H]3CC[C@H](C)CC3)c12)C1CCC1` [Example 12.18, 6-{[(1R)-1-cyclobutylethyl]amino}-7-[(trans-4-methylcyclohexyl)methyl]-N-(methylsulfonyl)-8-[(3R)-3-phenylmorpholin-4-yl]-7H-purine-2-carboxamide], the IC50 worked out at 0.585 nM.

Turning to `C[C@@H](Nc1nc(-c2nc(=O)n(C)[nH]2)nc2nc(N3CCOC[C@H]3c3ccccc3)n(C[C@H]3CC[C@H](C)CC3)c12)C1CCC1` [Example 12.19, 5-(6-{[(1R)-1-cyclobutylethyl]amino}-7-[(trans-4-methylcyclohexyl)methyl]-8-[(3R)-3-phenylmorpholin-4-yl]-7H-purine-2-yl)-2-methyl-2,4-dihydro-3H-1,2,4-triazol-3-one], the IC50 was determined as 1.61 nM.

Staying with this assay, now noted: read-out: % inh. at 1000 nM; at 1000 nM compound.
Consider `CC(C)c1ccnc(-c2nc3nc(CN)nc(N[C@H](C)C4CCC4)c3n2C[C@H]2CC[C@H](C)CC2)c1` [Example 12.4, 2-(aminomethyl)-N-[(1R)-1-cyclobutylethyl]-7-[(trans-4-methylcyclohexyl)methyl]-8-[4-(propan-2-yl)pyridin-2-yl]-7H-purine-6-amine], for which the inhibition at 1 µM was 39%.

On to `CC(C)c1ccnc(-c2nc3nc(CNC(=O)C(F)(F)F)nc(N[C@H](C)C4CCC4)c3n2C[C@H]2CC[C@H](C)CC2)c1` [Example 12.10, N-[(6-{[(1R)-1-cyclobutylethyl]amino}-7-[(trans-4-methylcyclohexyl)methyl]-8-[4-(propan-2-yl)pyridin-2-yl]-7H-purin-2-yl)methyl]-2,2,2-trifluoroacetamide], for which the inhibition at 1 µM was 30%.

For the origin of these results see EP2951180B1, “2,6,7,8 SUBSTITUTED PURINES AS HDM2 INHIBITORS” (Merck Sharp & Dohme Corp., priority 2013, dated 2014).
